Results as given in patent US10266545B2, “Coumarin derivative as antiviral agent, pharmaceutical composition thereof, its preparation and use” (I-NOVA MEDICINSKA ISTRAZIVANJA D.O.O., priority 2016, dated 2019).

Experiments:
[1] = target: T1, rRT (exogenous recombinant RT) (Human immunodeficiency virus type 1 group M subtype B, UniProt P03366); assay: Direct effect on exogenous recombinant RT (rRT), HS-Lenti RT activity kit; assay type: biochemical, HIV-1; settings: for inhibition at 10 µM: 0.01 mM
T1 construct: recombinant RT was added with a known activity and concentration; purchased Cavidi (Sweden) 52010
Method: The RT test was performed by using HS-Lenti RT activity kit test provided by Cavidi (Sweden) for direct study of inhibitory effect of rRT. HS-Lenti RT activity assay provides an opportunity for direct determination of the effects of the test compound 1 and the control compound 2 on the activity of rRT, of known concentrations. […] Such opportunity is provided by the test kit manufacturer, see literature reference 10: • 10) X. Shao, D. Ekstrand, R. Bhikhabhai, C. Kallander, J. Gronowitz: A non-radioactive microtitre plate reverse transcriptase (RT) assay, based on immobilized template, for screening of RT activity inhibitors and evaluation of the mode of action, Antiviral Chem. Chemother. 8 (1997) 149-159.
For the control, commonly used substance with proven antiviral activity was employed; in our case, we used Kivexa, which contains 600 mg Abacavir and 300 mg of Lamivudine, which is applied in clinical practice as nucleoside inhibitor of RT. In the presence of RT inhibition in the test, it is concluded that not only the replication of the virus is inhibited, but also probably the target of the inhibitory effect is RT itself. To confirm this conclusion, it is necessary that percentage (%) of inhibition of the RT coincides with the % inhibition in the microtiter MTT assay. […] After incubation, we determined whether the activity of the enzyme shall be amended (inhibited) by action of the compounds 1 or 2. […]
The procedure was as follows: In wells of a company plate coated with a matrix poly-rA, are added reaction mixture to RT, the primer containing oligo-dT, Brd UTP as a source of dNTP and prepared at buffer of the commercial test 10× more concentrated (as reaction mixture was in a volume of 100 μl) of the test substance dilutions. […] Manifestation of the enzyme reaction was carried out using a suitable substrate for alkaline phosphatase for 30 minutes and then the absorbance was detected at a wavelength of 405 nm. […]

MT-4 cells = assay: Cytotoxicity (MNC, CC50) by MTT assay on uninfected MT-4 cell line; assay type: cell-based; settings: for MNC (maximal non-toxic concentration): MT-4 cells, MTT
Method: (§1) Cell viability was estimated by a modification of the 3-(4,5-dimethylthiazol-2-yl)-2,5-diphenyltetrazolium bromide (MTT) assay, which is described in the literature reference 9: • 9) T. Mosmann: Rapid colorimetric assay for cellular growth and survival: Application to proliferation and cytotoxicity assays, J. Immunol.
(§2) Both MNC and CC50 values were evaluated simultaneously by morphological and by cell survival criteria. We used MTT-test, determining the living and early apoptotic cells.
(§3) The cells in the suspension culture are growing in clusters. […] Cells were passaged 1:3-1:5 at a density around 6-8·10^4 cells/ml, while the passage was re-suspended repeatedly.
(§4) Cell viability was estimated by a modification of the 3-(4,5-dimethylthiazol-2-yl)-2,5-diphenyltetrazolium bromide (MTT) assay, which is described in the reference 9.
(§5) Since the cell culture we have worked with were suspension, a solution of poly-L-lysine (PLL; Mw=90,000; Sigma-Aldrich, USA) was used for cell attachment on the bottom of a 96-well plate. The plates were treated with 100 μl of PLL at a concentration of 50 μg/ml in phosphate buffered saline (PBS; Sigma-Aldrich, USA), pH=7.4, then incubated for 1 h at room temperature. Followed aspiration of PLL solution and washing the plate twice with sterile PBS. Cells were then seeded at a concentration of 7-8·10^4 cells/100 μl for all experiments. Since the final volume of the culture medium in each well was 200 μl, additional 100 μl of 10% FBS (containing no cells) was added. For the purpose of the experiment, there was no need of forming a dense cell monolayer and after 24 h, when the adherent cells were stick to the plastic, the supernatant was decanted and adding 50 μl of previously prepared dilution of test compound. The well was completed with culture medium (150 μl) to a final volume of 200 μl. The plate was incubated at 37° C. and 5% content of CO2 for 3 days (72 h). Cells grown in medium without the test compound served as a control.
(§6) After 72 h incubation, the medium was replaced with MTT (Sigma Aldrich, USA) and dissolved at a final concentration of 5 mg/ml in serum-free medium, for further 3 h incubation. Then, the MTT-formazan product was solubilised in ethanol/dimethyl sulfoxide (DMSO; Sigma-Aldrich, USA) (1:1, V/V), and the optical density was measured at a test wavelength of 540 nm. Each experiment was performed in triplicate.
(§7) Cell viability was reported as the percentage (%) of viable cells in the wells treated with different concentrations of the test substance compared to the control cells untreated with the substances.

[2] = as above; assay type: cell-based; settings: human; MT-4 cells, 72 h, MTT; read-out: CC50 (cytotoxic concentration for 50% cells)
Method: as §1, §2, §3, §4, §5, §6, §7

[3] = 72 h, highest concentration of 100 mM, could be due to DMSO
[4] = 72 h after treatment, concentration range from 10 mM to 0.01 mM

## O=c1oc2cc(O)cc(O)c2c(O)c1-c1coc2c1c(=O)oc1cc(O)cc(O)c12 [Compound 1, 7,9-dihydroxy-3-(4,5,7-trihydroxy-2-oxo-2H-chromene-3-yl)-4H-furo[3,2-c]chromen-4-one]
[1]; 0.005 mM
  inhibition at 5 µM: 0%
[1]
  inhibition at 10 µM: 72.8%
MT-4 cells; [3]
  microscopic observation of the morphology of the monolayer: some morphology changes
MT-4 cells; [4]
  microscopic observation of the morphology of the monolayer: typical cytopathology characterizing toxic effects were not registered
MT-4 cells; 72 h
  MNC (maximal non-toxic concentration): 0.01 mM
[2]
  CC50 at 72 h: 10 mM

## O=c1oc2cc(O)c(O)cc2c(O)c1-c1coc2c1c(=O)oc1cc(O)c(O)cc12 [Compound 2, 7,8-dihydroxy-3-(4,6,7-trihydroxy-2-oxo-2H-chromen-3-yl)-4H-furo[3,2-c]chromen-4-one, reference compound]
[1]
  inhibition at 10 µM: 0%
MT-4 cells; [3]
  microscopic observation of the morphology of the monolayer: some morphology changes
MT-4 cells; [4]
  microscopic observation of the morphology of the monolayer: typical cytopathology characterizing toxic effects were not registered
MT-4 cells; 72 h
  MNC (maximal non-toxic concentration): 0.01 mM
[2]
  CC50 at 72 h: 10 mM
